Assay results from EP0359745B1, “GROWTH FACTOR RECEPTOR” (IMPERIAL CANCER RESEARCH TECHNOLOGY LIMITED, priority 1987, dated 1988).
One block for each compound: values may come before it. Non-standard residues stand in square brackets, D forms with d. Residues, ends and D or L forms follow the SMILES beside them. No end group written: not given here.

Assays:
GRP receptor [1] = target: T1, GRP receptor (Mus musculus, UniProt P21729); details: statement in words, earlier work (reference 13); cited from earlier work
T1 construct: Confluent and quiescent cultures of Swiss 3T3 cells were incubated at 15°C; endogenous in cells; host or cells: Swiss 3T3 cells (mouse fibroblasts)

Mr 75000-85000 protein = Mr 75000-85000 protein (Mus musculus, UniProt P21729); assay: ¹²⁵I-GRP affinity labelling (EGS cross-linking) of the Mr 75000-85000 protein in Swiss 3T3 cells, SDS-PAGE and scanning densitometry; format: binding; set-up: endogenous in cells; host or cells: Swiss 3T3 cells (mouse fibroblasts); details: for cross-linking of ¹²⁵I-GRP / level of the Mr 75000-85000 protein (in words): summary of Table 1, saturating concentrations of the other mitogens; for Mr 75000-85000 protein % of control: ¹²⁵I-GRP (0.5 nM), 15°C, 2.5 h, 6 mM EGS, additions: GRP 360 nM, GRP (14-27) 30 nM, bombesin 30 nM, litorin 92 nM, neuromedin B 220 nM, [D-Arg¹,D-Pro²,D-Trp^7,9,Leu¹¹] substance P 100 »M, GRP (1-16) 3230 nM, PDGF 5 nM, EGF 83 nM, vasopressin 1000 nM, insulin 1 »g/ml, phorbol 12,13 dibutyrate 2000 nM, substance P 740 nM, substance K 880 nM, somatostatin 610 nM, neurotensin 600 nM
Procedure: After 2.5 h the cells were washed three times at 15°C with phosphate buffered saline (PBS) ad then incubated for 15 min at 15°C In 1 ml of binding medium, pH 7.4 In the presence of the appropriate cross-linking agent at the concentration indicated. The cross-linking agents (EGS, DSS, DSP and BSCOES) were dissolved in dimethyl sulphoxide immediately prior to use and were added to medium to give a final concentration of dimethylsulphoxide of 1-2%. The cultures were rapidly rinsed twice with PBS at 4°C and solubilized in 0.1ml of 2 x sample buffer 0.2 M Tris-HCl, pH 6.8, 10% (w/v) glycerol, 6% sodium dodecyl sulphate (SDS) (w/v) 4% β-mercaptoethanol (v/v) and 2 mM ethylenediaminetetraacetic acid. Samples were immediately heated at 100°C for 3-5 min and analysed by either one or two-dimensional gel electrophoresis.
Slab gel electrophoresis was performed using 7.5% acrylamide in the separating gel ad 5% in the stacking gel, ad 0.1% SDS (31). After electrophoresis gels were stained, destained and dried down onto paper for autoradiography with Fuji X-ray film (Fuji Photo Film Co. Ltd. Japan). Dried gels were exposed to film for 4-8 days. Two-dimensional gel electrophoresis was performed as described by O'Farrell (32) using isoelectric focusing in the 1st dimension and SDS-polyacrylamide gel electrophoresis (SDS-PAGE) (8% polyacrylamide) in the second dimension. The samples prepared for isoelectric focusing containing 1.4% LKB ampholytes, pH 5-7, plus 0.6% LKD ampholytes, pH 3.5-10, 6M urea, and 2% Nonidet P-40. The Mr 75000-85000 band from autoradiograms was scanned using a Joyce-Loebl double beam densitometer and the areas under specific peaks were measured with a Hewlett-Packard digitizer.
After this time some cells were washed four times with cold (4°C) PBS supplemented with 1 mg/ml BSA, solubilized and total cell associated radioactivity was then determined in a gamma counter. […] The cells were then solubilized and samples were analyzed by SDS-PAGE. After electrophoresis, gels were dried, exposed to film and scanned as described in Materials and Methods. The areas under the individual peaks for the Mr 75000-85000 protein are shown as a function of the concentration of the unlabelled peptide and are expressed as a percentage of the control. […] The level of the Mr 75000-85000 protein expressed in arbitrary units is shown as a function of the concentration of the labelled ligand. Inset: autoradiogram of the gel used for scanning; the Mr 75000-85000 and 160,000 bands are indicated by arrows. All other experimental details were as described in Materials and Methods.
(§1) Figure 4. […] Values are expressed as percentage of the specific binding obtained in the absence of antagonists. […] Each point represents the mean of 3 determinations. […] Specific binding (B) is expressed in pmol/10⁶ cells and is shown in a double-reciprocal plot. Each point represents the mean of duplicate determinations. […] After 2 hours, the cultures were washed twice with binding medium then incubated in 1 ml containing 6 mM ethylene glycol bis (succinimidylsuccinate) (EGS) at pH 7.4 for 15 minutes at 15°C. The cultures were then washed twice with cold phosphate-buffered saline and solubilised in 0.1 ml of 2x sample buffer, then immediately heated at 100°C for 5 minutes and electrophoresed on a 10% polyacrylamide gel.
After the incubation period cultures were treated with 6 mM EGS as described in Materials and Methods. Each value is expressed as a percentage of the level of the Mr 75000-85000 protein obtained with no additons (-). Other experimental details are as described in Materials and Methods.

Swiss 3T3 cells [2] = details: statement in words, earlier work (reference 13); cited from earlier work
GRP receptor [3] = target: T1, GRP receptor; assay: specific [¹²⁵I]GRP binding to intact Swiss 3T3 cells
Procedure: (§2) Cell culture procedure (33), assays of DNA synthesis by ³H-thymidine incorporation (34) ad ¹²⁵I-GRP binding to intact cells (13) were performed as described previously.
as §1

Swiss 3T3 cells [4] = assay: reversal of the inhibition of [¹²⁵I]EGF binding induced by GRP in Swiss 3T3 cells; format: cell-based, mouse; details: read-out: Half-maximal reversal of inhibition (of [¹²⁵I]EGF binding by GRP); [¹²⁵I]EGF 0.2 nM, GRP 3.6 nM, 1 hour, 37°C
Procedure: (§3) Figure 5. […] Left: Effects of antagonists on [Ca²⁺]i. Quiescent Swiss 3T3 cells grown on Cytodex 2 beads were washed twice with DMEM and incubated for 10 minutes with fura-2 tetracetoxymethyl ester at 1 »m, then washed three times and suspended in 2 ml of electrolyte solution (6) in the fluorimeter at 37°C and stirred. Fluorescence was recorded continuously in a Perkins-Elmer LS5 luminescence spectrometer with an excitation wavelength of 335 nm and emission wavelength of 510 nm. After a period of equilibration, the following additions were made: solvent, S; antagonist A at 5 »m, A, 5 and 20 »m, A, 20; antagonist D at 5»m, D, 5. […] Values are expressed as percentages of the specific binding obtained with [¹²⁵I]EGF alone at 0.2 nM. The non-specific binding was obtained by the addition of 500-fold excess of unlabelled EGF. Each point represents the mean of 6 determinations.

H69 cells = assay: growth of SCLC cell line in serum-free medium (cell number, Coulter Counter); format: cell-based
Procedure: Figure 6. […] Stock cultures of cell lines H69, H128 and H417 were maintained in RPMI 1640 medium with 10% fetal bovine serum (heat inactivated) in a humidified atmosphere of 10% CO₂:90% air at 37°C. They were passaged every 7 days. Identical growth was obtained in the serum-free medium of RPMI 1640 supplemented with HITES (29) (hydrocortisone, 10 nM; insulin, 5 »g/ml; transferrin, 100 »g/ml; 17β-estradiol, 10 nM; sodium selenite, 30 nM) and 0.25% bovine serum albumin. […] Cell number was determined at intervals over 14 days in a Coulter Counter after disaggregation of cell clumps by syringing through 19G and 21G needles. Each point represents the mean of 3 determinations.
Figure 7. Inhibition of SCLC growth in vitro by [DPro²]spantide and [DPhe⁵]spantide is concentration-dependent. Cultures of H69 cells were washed twice with RPMI 1640 medium then incubated in serum-free medium (as in Figure 6) in the absence (●) or presence of various concentrations of [DPro²]spantide (o,A) and [DPhe⁵]spantide (△,D). Cell number was determined in a Coulter Counter after disaggregation of cell clumps by syringing through 19G and 21 G needles. Samples were incubated for 13 days, when the controls (inset) had achieved 10-fold increase in number, indicated by the arrow. Each point represents the mean (± standard deviation) of 5 determinations.

Swiss 3T3 cells [5] = assay: GRP-induced DNA synthesis ([³H]thymidine incorporation) in Swiss 3T3 cells; format: cell-based, mouse; details: for ability to inhibit mitogenesis stimulated by GRP: substance P antagonists tested at 50 »m, ranking in words
Procedure: as §2
Figure 3. Inhibition of GRP-induced DNA synthesis by [DPro²]spantide (A) and [DPhe⁵]spantide (D). […] After 40 hours DNA synthesis was estimated by [³H]thymidine incorporation into acid-precipitable material. […] Each point represents the mean of duplicate determinations. […] Values are expressed as a percentage of [³H]thymidine incorporation obtained in the absence of antagonists (100% = 8.6 x 10⁵ cpm per dish). Each point represents the mean of 4 determinations.

Swiss 3T3 cells [6] = assay: GRP-stimulated rise in cytosolic Ca²⁺ concentration (fura-2 fluorescence) in Swiss 3T3 cells; format: cell-based, mouse
Procedure: as §3

Sequence of Mr 75000-85000 protein (P21729 whole entry): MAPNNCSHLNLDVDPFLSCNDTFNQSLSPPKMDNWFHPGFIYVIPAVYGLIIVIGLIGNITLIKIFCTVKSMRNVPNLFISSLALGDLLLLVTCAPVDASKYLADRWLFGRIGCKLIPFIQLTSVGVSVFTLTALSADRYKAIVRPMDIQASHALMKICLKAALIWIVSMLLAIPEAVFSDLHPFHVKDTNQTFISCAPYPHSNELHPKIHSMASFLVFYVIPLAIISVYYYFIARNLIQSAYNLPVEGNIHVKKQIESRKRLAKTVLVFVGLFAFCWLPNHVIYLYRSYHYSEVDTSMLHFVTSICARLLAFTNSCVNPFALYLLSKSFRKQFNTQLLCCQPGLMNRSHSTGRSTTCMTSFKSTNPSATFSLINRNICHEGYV
T1 sequence (P21729 whole entry): as above

Compound: CSCC[C@H](NC(=O)[C@H](CC(C)C)NC(=O)CNC(=O)[C@H](Cc1ccccc1)NC(=O)[C@H](Cc1ccccc1)NC(=O)[C@H](CCC(N)=O)NC(=O)[C@H](CCC(N)=O)NC(=O)[C@@H]1CCCN1C(=O)[C@H](CCCCN)NC(=O)[C@@H]1CCCN1C(=O)[C@@H](N)CCCNC(=N)N)C(N)=O [Substance P]
inhibition of GRP binding to Swiss 3T3 cells (GRP receptor [1]): neither inhibits | cross-linking of ¹²⁵I-GRP / level of the Mr 75000-85000 protein (in words) (Mr 75000-85000 protein): no effect | stimulation of DNA synthesis (Swiss 3T3 cells [2]): nor stimulates DNA synthesis

IC50 (Mr 75000-85000 protein; read-out: Half-maximal inhibition (affinity-labelling of the Mr 75000-85000 protein)): 5.5 µM | IC50 (GRP receptor [3]; read-out: Half-maximal inhibition of binding): 2.3 µM
Compound: CC(C)C[C@H](NC(=O)[C@H](CC(C)C)NC(=O)[C@@H](Cc1c[nH]c2ccccc12)NC(=O)[C@H](Cc1ccccc1)NC(=O)[C@@H](Cc1c[nH]c2ccccc12)NC(=O)[C@H](CCC(N)=O)NC(=O)[C@@H](Cc1ccccc1)NC(=O)[C@@H]1CCCN1C(=O)[C@H](CCCCN)NC(=O)[C@@H]1CCCN1C(=O)[C@H](N)CCCN=C(N)N)C(N)=O [[DPhe⁵]spantide, D-Arg-Pro-Lys-Pro-D-Phe-Gln-D-Trp-Phe-D-Trp-Leu-Leu-NH₂] (H-[dR]PKP[dF]Q[dW]F[dW]LL-NH2)

affinity of the receptors of [¹²⁵I]GRP (GRP receptor [3]; 10 »m antagonist, double reciprocal plot, number of binding sites unchanged): markedly reduces the affinity | difference in potency (GRP receptor [3]; [DPhe⁵]spantide versus [DPro²]spantide, inhibition of specific [¹²⁵I]GRP binding): 6.1 fold
Compound: CC(C)C[C@H](NC(=O)[C@H](CC(C)C)NC(=O)[C@@H](Cc1c[nH]c2ccccc12)NC(=O)[C@H](Cc1ccccc1)NC(=O)[C@@H](Cc1c[nH]c2ccccc12)NC(=O)[C@H](CCC(N)=O)NC(=O)[C@@H](Cc1ccccc1)NC(=O)[C@@H]1CCCN1C(=O)[C@H](CCCCN)NC(=O)[C@@H]1CCCN1C(=O)[C@H](N)CCCNC(=N)N)C(N)=O [[DPhe⁵]spantide, D-Arg-Pro-Lys-Pro-D-Phe-Gln-D-Trp-Phe-D-Trp-Leu-Leu-NH₂] (H-[dR]PKP[dF]Q[dW]F[dW]LL-NH2)
EC50 (Swiss 3T3 cells [4]): 8.7 µM | IC50 (H69 cells; H69 cells, serum-free medium, 13 days, read-out: half-maximal effect (inhibition of growth)): 24 µM | potency of Antagonist D over Antagonist A (H69 cells; H69 growth inhibition): more than 5 fold | IC50 (Swiss 3T3 cells [5]; GRP 3.6 nM, 40 hours, Figure 3 right, read-out: Half-maximal inhibition of DNA synthesis): 22 µM | concentration of GRP required to produce half-maximal stimulation of DNA synthesis (Swiss 3T3 cells [5]; antagonist at 20 »m, Figure 3 left): markedly increased | fold more potent than [DPro²]spantide in inhibiting DNA synthesis induced by GRP (Swiss 3T3 cells [5]; ratio of half-maximal concentrations): 5.4 fold | ability to inhibit mitogenesis stimulated by GRP (Swiss 3T3 cells [5]): most potent GRP antagonist | rise in [Ca²⁺]i caused by the addition of GRP (Swiss 3T3 cells [6]; GRP (1 nM), antagonist at 5 »m): effective | response to PDGF ([Ca²⁺]i) (Swiss 3T3 cells [6]; antagonist at 5 »m, PDGF at 1 nM, specificity): did not prevent | fold more potent than [DPro²]spantide in this assay (Swiss 3T3 cells [6]; prevention of the GRP-induced rise in [Ca²⁺]i): at least 4 fold

cross-linking of ¹²⁵I-GRP / level of the Mr 75000-85000 protein (in words) (Mr 75000-85000 protein): no reduction | Mr 75000-85000 protein % of control (Mr 75000-85000 protein): 93 % of control
Compound: GRP (1-16): the 1-16 amino acid fragment of GRP (amino-terminal fragment) (VPLPAGGGTVLTKMYP; Gastrin-releasing peptide; UniProt P07492 24-39, looked up, fragment)
inhibition of GRP binding to Swiss 3T3 cells (GRP receptor [1]): neither inhibits | stimulation of DNA synthesis (Swiss 3T3 cells [2]): nor stimulates DNA synthesis

Mr 75000-85000 protein % of control (Mr 75000-85000 protein): 0.4 % of control
Compound: GRP (14-27): the 14-27 amino acid fragment of GRP (MYPRGNHWAVGHLM; ends and bridges not checked; UniProt P07492 37-50, looked up, fragment)

Compound: Neurotensin: unrelated factor
Mr 75000-85000 protein % of control (Mr 75000-85000 protein): 93 % of control

Compound: Somatostatin: neuropeptide
cross-linking of ¹²⁵I-GRP / level of the Mr 75000-85000 protein (in words) (Mr 75000-85000 protein): no effect | Mr 75000-85000 protein % of control (Mr 75000-85000 protein): 97 % of control

Compound: Spantide
antagonist activity (Swiss 3T3 cells [5]; even at 100 uM): no antagonist activity | ability to inhibit mitogenesis stimulated by GRP (Swiss 3T3 cells [5]): less potent than either A or D

Compound: Vasopressin: mitogen for Swiss 3T3 cells
cross-linking of ¹²⁵I-GRP / level of the Mr 75000-85000 protein (in words) (Mr 75000-85000 protein): not substantially affected | Mr 75000-85000 protein % of control (Mr 75000-85000 protein): 94 % of control
